Structures are written as SMILES.

This experiment addresses T1, human PAH with the R408W mutation (Homo sapiens, UniProt P00439, R408W).
T1 construct: expressed in transfected cells
T1 sequence (P00439 1-452 R408W): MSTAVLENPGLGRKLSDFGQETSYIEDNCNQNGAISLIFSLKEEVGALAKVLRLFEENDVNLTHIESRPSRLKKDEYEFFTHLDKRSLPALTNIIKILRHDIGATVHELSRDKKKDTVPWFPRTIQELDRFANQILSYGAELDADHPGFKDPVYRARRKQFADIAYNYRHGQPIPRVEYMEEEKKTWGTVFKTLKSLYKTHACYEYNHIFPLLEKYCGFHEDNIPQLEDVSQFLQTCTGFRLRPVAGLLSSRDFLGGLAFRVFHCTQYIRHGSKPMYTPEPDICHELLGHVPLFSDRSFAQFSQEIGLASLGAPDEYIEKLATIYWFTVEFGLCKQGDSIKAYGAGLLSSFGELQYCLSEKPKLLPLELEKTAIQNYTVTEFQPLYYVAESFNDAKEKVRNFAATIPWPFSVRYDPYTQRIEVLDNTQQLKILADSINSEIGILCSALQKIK
Description: Cell Based Phenylalanine Flux Assay. Conditions: A375 cells expressing human R408W PAH; 24 hrs compound incubation; 13C-Tyrosine by LC-MS; average where tested multiple times; read-out: AC50.

As to `C[C@@H](O)c1nc(C(F)F)c(C(=O)N2CCc3[nH]cnc3[C@@H]2c2nc3c(C(F)(F)F)cccc3s2)o1` [Example 2110, (4-(difluoromethyl)-2-((R)-1-hydroxyethyl)oxazol-5-yl)((R)-4-(4-(trifluoromethyl)benzo[d]thiazol-2-yl)-6,7-dihydro-1H-imidazo[4,5-c]pyridin-5(4H)-yl)methanone], the AC50 fell in the range of 1 to 5 µM.
In the case of `Cn1nccc1C(=O)N1CCc2[nH]cnc2[C@H]1c1nc2c(C(F)(F)F)cccc2s1` [Example 2111, (S)-(1-methyl-1H-pyrazol-5-yl)(4-(4-(trifluoromethyl)benzo[d]thiazol-2-yl)-6,7-dihydro-1H-imidazo[4,5-c]pyridin-5(4H)-yl)methanone], the AC50 was in the range of 0.5 to 1 µM.
As for `Cn1nccc1C(=O)N1CCc2[nH]cnc2[C@@H]1c1nc2c(C(F)(F)F)cccc2s1` [Example 2112, (R)-(1-methyl-1H-pyrazol-5-yl)(4-(4-(trifluoromethyl)benzo[d]thiazol-2-yl)-6,7-dihydro-1H-imidazo[4,5-c]pyridin-5(4H)-yl)methanone], the AC50 lay within 1 to 5 µM.
In the case of `C[C@H](O)c1nc(C(F)F)c(C(=O)N2CCc3[nH]cnc3[C@H]2c2nc3c(C(F)(F)F)cccc3s2)o1` [Example 2113, (4-(difluoromethyl)-2-((S)-1-hydroxyethyl)oxazol-5-yl) ((S)-4-(4-(trifluoromethyl)benzo[d]thiazol-2-yl)-6,7-dihydro-1H-imidazo[4,5-c]pyridin-5(4H)-yl)methanone] it was less than 0.5 µM; in that of `C[C@H](O)c1nc(C(F)F)c(C(=O)N2CCc3[nH]cnc3[C@@H]2c2nc3c(C(F)(F)F)cccc3s2)o1` [Example 2114, (4-(difluoromethyl)-2-((S)-1-hydroxyethyl)oxazol-5-yl)((R)-4-(4-(trifluoromethyl)benzo[d]thiazol-2-yl)-6,7-dihydro-1H-imidazo[4,5-c]pyridin-5(4H)-yl)methanone], 0.5 to 1 µM.
With `Cc1nc(C(C)(C)O)oc1C(=O)N1CCc2[nH]cnc2[C@H]1c1nc2c(C(F)(F)F)cccc2s1` [Example 2115, (S)-(2-(2-hydroxypropan-2-yl)-4-methyloxazol-5-yl)(4-(4-(trifluoromethyl)benzo[d]thiazol-2-yl)-6,7-dihydro-1H-imidazo[4,5-c]pyridin-5(4H)-yl)methanone], the AC50 is 0.5 to 1 µM.
As for `Cc1nc(C(C)(C)O)oc1C(=O)N1CCc2[nH]cnc2[C@@H]1c1nc2c(C(F)(F)F)cccc2s1` [Example 2116, (R)-(2-(2-hydroxypropan-2-yl)-4-methyloxazol-5-yl)(4-(4-(trifluoromethyl)benzo[d]thiazol-2-yl)-6,7-dihydro-1H-imidazo[4,5-c]pyridin-5(4H)-yl)methanone], the AC50 was in the range of 1 to 5 µM.
The value for `O=C(c1cnc(-c2ccc(F)cc2)o1)N1CCc2[nH]cnc2[C@H]1c1nc2ccccc2s1` [Example 2117] was less than 0.5 µM; that for `O=C(c1cnc(-c2ccc(F)cc2)o1)N1CCc2[nH]cnc2[C@@H]1c1nc2ccccc2s1` [Example 2118, (R)-(4-(benzo[d]thiazol-2-yl)-6,7-dihydro-1H-imidazo[4,5-c]pyridin-5(4H)-yl)(2-(4-fluorophenyl)oxazol-5-yl)methanone] was 1 to 5 µM.
Turning to `O=C(c1oc(-c2ccccn2)nc1C1CC1)N1CCCc2[nH]cnc2[C@H]1c1nc2ccccc2s1` [Example 2119, (S)-(4-(benzo[d]thiazol-2-yl)-7,8-dihydroimidazo[4,5-c]azepin-5(1H,4H,6H)-yl)(4-cyclopropyl-2-(pyridin-2-yl)oxazol-5-yl)methanone], the AC50 was 0.5 to 1 µM.
The value for `O=C(c1oc(-c2ccccn2)nc1C1CC1)N1CCCc2[nH]cnc2[C@@H]1c1nc2ccccc2s1` [Example 2120, (R)-(4-(benzo[d]thiazol-2-yl)-7,8-dihydroimidazo[4,5-c]azepin-5(1H,4H,6H)-yl)(4-cyclopropyl-2-(pyridin-2-yl)oxazol-5-yl)methanone] was 1 to 5 µM.
`O=C(c1oc(-c2ccccn2)nc1C(F)(F)F)N1CCCc2[nH]cnc2[C@H]1c1nc2ccccc2s1` [Example 2121, (S)-(4-(benzo[d]thiazol-2-yl)-7,8-dihydroimidazo[4,5-c]azepin-5(1H,4H,6H)-yl)(2-(pyridin-2-yl)-4-(trifluoromethyl)oxazol-5-yl)methanone]: the AC50 lay in the range of 0.5 to 1 µM.
In the case of `O=C(c1oc(-c2ccccn2)nc1C(F)(F)F)N1CCCc2[nH]cnc2[C@@H]1c1nc2ccccc2s1` [Example 2122, (R)-(4-(benzo[d]thiazol-2-yl)-7,8-dihydroimidazo[4,5-c]azepin-5(1H,4H,6H)-yl)(2-(pyridin-2-yl)-4-(trifluoromethyl)oxazol-5-yl)methanone] it was 1 to 5 µM.
Regarding `CC(C)(O)c1nc(C(F)(F)F)c(C(=O)N2CCCc3[nH]cnc3[C@H]2c2nc3ccccc3s2)o1` [Example 2123, (S)-(4-(benzo[d]thiazol-2-yl)-7,8-dihydroimidazo[4,5-c]azepin-5(1H,4H,6H)-yl)(2-(2-hydroxypropan-2-yl)-4-(trifluoromethyl)oxazol-5-yl)methanone], the AC50 was in the range of 1 to 5 µM.
For the compound `CC(C)(O)c1nc(C(F)(F)F)c(C(=O)N2CCCc3[nH]cnc3[C@@H]2c2nc3ccccc3s2)o1` [Example 2124, (R)-(4-(benzo[d]thiazol-2-yl)-7,8-dihydroimidazo[4,5-c]azepin-5(1H,4H,6H)-yl)(2-(2-hydroxypropan-2-yl)-4-(trifluoromethyl)oxazol-5-yl)methanone], the AC50 lay within 1 to 5 µM.
As for `O=C(c1oc(NC2CC2)nc1C(F)(F)F)N1CCCc2[nH]cnc2[C@H]1c1nc2ccccc2s1` [Example 2127, (S)-(4-(benzo[d]thiazol-2-yl)-7,8-dihydroimidazo[4,5-c]azepin-5(1H,4H,6H)-yl)(2-(cyclopropylamino)-4-(trifluoromethyl)oxazol-5-yl)methanone], the AC50 lay within 1 to 5 µM.
Regarding `O=C(c1oc(NC2CC2)nc1C(F)(F)F)N1CCCc2[nH]cnc2[C@@H]1c1nc2ccccc2s1` [Example 2128, (R)-(4-(benzo[d]thiazol-2-yl)-7,8-dihydroimidazo[4,5-c]azepin-5(1H,4H,6H)-yl)(2-(cyclopropylamino)-4-(trifluoromethyl)oxazol-5-yl)methanone], the AC50 was in the range of 1 to 5 µM.
For the compound `Cc1ncoc1C(=O)N1CCCc2[nH]cnc2[C@H]1c1nc2ccccc2s1` [Example 2129, (S)-(4-(benzo[d]thiazol-2-yl)-7,8-dihydroimidazo[4,5-c]azepin-5(1H,4H,6H)-yl)(4-methyloxazol-5-yl)methanone], the AC50 is 1 to 5 µM.
On to `Cc1ncoc1C(=O)N1CCCc2[nH]cnc2[C@@H]1c1nc2ccccc2s1` [Example 2130, (R)-(4-(benzo[d]thiazol-2-yl)-7,8-dihydroimidazo[4,5-c]azepin-5(1H,4H,6H)-yl)(4-methyloxazol-5-yl)methanone], for which the AC50 was greater than 5 µM.
Turning to `O=C(c1ocnc1C(F)(F)F)N1CCCc2[nH]cnc2[C@H]1c1nc2ccccc2s1` [Example 2131, (S)-(4-(benzo[d]thiazol-2-yl)-7,8-dihydroimidazo[4,5-c]azepin-5(1H,4H,6H)-yl)(4-(trifluoromethyl)oxazol-5-yl)methanone], the AC50 lay within 0.5 to 1 µM.
In the case of `O=C(c1ocnc1C(F)(F)F)N1CCCc2[nH]cnc2[C@@H]1c1nc2ccccc2s1` [Example 2132, (R)-(4-(benzo[d]thiazol-2-yl)-7,8-dihydroimidazo[4,5-c]azepin-5(1H,4H,6H)-yl)(4-(trifluoromethyl)oxazol-5-yl)methanone], the AC50 was 1 to 5 µM.
For the compound `O=C(c1oc(N2CCOCC2)nc1C(F)(F)F)N1CCCc2[nH]cnc2[C@H]1c1nc2ccccc2s1` [Example 2133, (S)-(4-(benzo[d]thiazol-2-yl)-7,8-dihydroimidazo[4,5-c]azepin-5(1H,4H,6H)-yl)(2-morpholino-4-(trifluoromethyl)oxazol-5-yl)methanone], the AC50 was 1 to 5 µM.
`O=C(c1oc(N2CCOCC2)nc1C(F)(F)F)N1CCCc2[nH]cnc2[C@@H]1c1nc2ccccc2s1` [Example 2134, (R)-(4-(benzo[d]thiazol-2-yl)-7,8-dihydroimidazo[4,5-c]azepin-5(1H,4H,6H)-yl)(2-morpholino-4-(trifluoromethyl)oxazol-5-yl)methanone]: the AC50 fell in the range of 1 to 5 µM.
In the case of `O=C(c1oc(CCC2CC2)nc1C(F)(F)F)N1CCCc2[nH]cnc2[C@H]1c1nc2ccccc2s1` [Example 2135, (S)-(4-(benzo[d]thiazol-2-yl)-7,8-dihydroimidazo[4,5-c]azepin-5(1H,4H,6H)-yl)(2-(2-cyclopropylethyl)-4-(trifluoromethyl)oxazol-5-yl)methanone], the AC50 is less than 0.5 µM.
On to `O=C(c1oc(CCC2CC2)nc1C(F)(F)F)N1CCCc2[nH]cnc2[C@@H]1c1nc2ccccc2s1` [Example 2136, (R)-(4-(benzo[d]thiazol-2-yl)-7,8-dihydroimidazo[4,5-c]azepin-5(1H,4H,6H)-yl)(2-(2-cyclopropylethyl)-4-(trifluoromethyl)oxazol-5-yl)methanone], for which the AC50 was 0.5 to 1 µM.
In the case of `O=C(c1oc(C2(O)CCC2)nc1C(F)(F)F)N1CCCc2[nH]cnc2[C@H]1c1nc2ccccc2s1` [Example 2137, (S)-(4-(benzo[d]thiazol-2-yl)-7,8-dihydroimidazo[4,5-c]azepin-5(1H,4H,6H)-yl)(2-(1-hydroxycyclobutyl)-4-(trifluoromethyl)oxazol-5-yl)methanone], the AC50 was 1 to 5 µM.

Values taken from patent US20250171438A1 (Agios Pharmaceuticals, Inc., priority 2022, published 2025).
